Assay results taken from ChEMBL document CHEMBL1145498, “A systematic interaction map of validated kinase inhibitors with Ser/Thr kinases” (Proc Natl Acad Sci U S A, 2007).

target: Serine/threonine-protein kinase PAK 4 (Homo sapiens) (UniProt O96013)
Sequence (O96013 whole entry, looked up): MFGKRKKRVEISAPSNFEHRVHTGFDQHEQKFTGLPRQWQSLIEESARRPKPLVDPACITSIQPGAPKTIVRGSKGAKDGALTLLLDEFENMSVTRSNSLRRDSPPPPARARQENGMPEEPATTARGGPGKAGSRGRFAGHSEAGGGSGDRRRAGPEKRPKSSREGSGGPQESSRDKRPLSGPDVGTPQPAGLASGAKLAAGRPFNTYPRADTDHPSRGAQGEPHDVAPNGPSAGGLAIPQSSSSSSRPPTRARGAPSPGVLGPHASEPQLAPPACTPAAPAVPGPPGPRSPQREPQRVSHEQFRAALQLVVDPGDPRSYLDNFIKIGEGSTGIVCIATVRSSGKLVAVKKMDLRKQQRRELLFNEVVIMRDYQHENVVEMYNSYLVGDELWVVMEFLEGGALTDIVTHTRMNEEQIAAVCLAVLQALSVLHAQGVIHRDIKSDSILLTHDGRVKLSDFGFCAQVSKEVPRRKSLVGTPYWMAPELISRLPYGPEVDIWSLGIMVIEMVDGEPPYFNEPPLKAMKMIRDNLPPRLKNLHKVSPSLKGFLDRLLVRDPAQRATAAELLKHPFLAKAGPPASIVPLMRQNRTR

Compound | ΔTm
COc1cccc(-c2cc(=O)c3ccccc3o2)c1N | 0.5 °C
CC(C)n1cnc2/c(=N/c3cccc(Cl)c3)nc(NCCO)[nH]c21 | 2.9 °C
NC(=O)c1ccc2[nH]c(-c3ccc(Oc4ccc(Cl)cc4)cc3)nc2c1 | 1.3 °C
COc1ccc2c(c[n+](C)c3c4cc5c(cc4ccc23)OCO5)c1OC [CHELERYTHRINE CHLORIDE] | -3.8 °C
N#CC(C#N)=Cc1ccc(O)c(O)c1 [TYRPHOSTIN 23] | -0.1 °C
COc1ccc(CNc2nc(N(CCO)CCO)nc3c2ncn3C(C)C)cc1 | 1.7 °C

target: Ribosomal protein S6 kinase alpha-3 (Homo sapiens) (UniProt P51812)
Sequence (P51812 whole entry): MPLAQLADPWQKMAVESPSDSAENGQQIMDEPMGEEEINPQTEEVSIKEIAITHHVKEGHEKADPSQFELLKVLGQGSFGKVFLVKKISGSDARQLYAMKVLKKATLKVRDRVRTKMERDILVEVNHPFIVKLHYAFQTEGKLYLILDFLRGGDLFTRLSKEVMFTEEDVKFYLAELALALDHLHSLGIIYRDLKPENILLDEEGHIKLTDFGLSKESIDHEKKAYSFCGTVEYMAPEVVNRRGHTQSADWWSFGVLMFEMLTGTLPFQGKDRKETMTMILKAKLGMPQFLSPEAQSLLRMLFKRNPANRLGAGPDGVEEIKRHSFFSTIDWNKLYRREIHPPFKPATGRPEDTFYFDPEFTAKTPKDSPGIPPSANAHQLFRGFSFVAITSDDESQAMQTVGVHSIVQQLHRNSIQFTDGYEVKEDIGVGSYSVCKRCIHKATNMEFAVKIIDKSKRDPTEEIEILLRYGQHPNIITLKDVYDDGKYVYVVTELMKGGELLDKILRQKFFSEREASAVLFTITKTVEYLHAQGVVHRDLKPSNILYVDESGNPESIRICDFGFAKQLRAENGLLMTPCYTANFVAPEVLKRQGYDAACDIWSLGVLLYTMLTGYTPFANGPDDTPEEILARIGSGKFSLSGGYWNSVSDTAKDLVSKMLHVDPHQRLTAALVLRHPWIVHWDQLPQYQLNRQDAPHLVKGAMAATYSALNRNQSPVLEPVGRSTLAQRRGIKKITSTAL

Compound | ΔTm
COc1cccc(-c2cc(=O)c3ccccc3o2)c1N | -0.1 °C
CC(C)n1cnc2/c(=N/c3cccc(Cl)c3)nc(NCCO)[nH]c21 | 4.6 °C
NC(=O)c1ccc2[nH]c(-c3ccc(Oc4ccc(Cl)cc4)cc3)nc2c1 | 0.7 °C
COc1ccc2c(c[n+](C)c3c4cc5c(cc4ccc23)OCO5)c1OC [CHELERYTHRINE CHLORIDE] | -1.3 °C
N#CC(C#N)=Cc1ccc(O)c(O)c1 [TYRPHOSTIN 23] | 0.2 °C
COc1ccc(CNc2nc(N(CCO)CCO)nc3c2ncn3C(C)C)cc1 | 1.3 °C

target: T1, Serine/threonine-protein kinase 4 (Homo sapiens) (UniProt Q13043)
T1 sequence (whole entry): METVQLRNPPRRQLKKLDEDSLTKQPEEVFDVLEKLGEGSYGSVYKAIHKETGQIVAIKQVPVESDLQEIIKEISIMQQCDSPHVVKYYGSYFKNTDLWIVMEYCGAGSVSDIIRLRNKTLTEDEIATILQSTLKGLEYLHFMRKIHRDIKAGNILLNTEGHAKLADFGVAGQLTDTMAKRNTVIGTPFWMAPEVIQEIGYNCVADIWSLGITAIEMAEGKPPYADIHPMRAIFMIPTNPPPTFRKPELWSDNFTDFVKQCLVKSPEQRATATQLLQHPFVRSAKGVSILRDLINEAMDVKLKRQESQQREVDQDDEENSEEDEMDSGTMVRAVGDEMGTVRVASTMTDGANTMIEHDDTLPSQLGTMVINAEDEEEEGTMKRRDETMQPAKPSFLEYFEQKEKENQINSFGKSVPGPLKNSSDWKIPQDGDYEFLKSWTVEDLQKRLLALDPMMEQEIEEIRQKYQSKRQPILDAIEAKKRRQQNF

Compound | ΔTm
COc1cccc(-c2cc(=O)c3ccccc3o2)c1N | -0.1 °C
CC(C)n1cnc2/c(=N/c3cccc(Cl)c3)nc(NCCO)[nH]c21 | 3.4 °C
NC(=O)c1ccc2[nH]c(-c3ccc(Oc4ccc(Cl)cc4)cc3)nc2c1 | -0.2 °C
COc1ccc2c(c[n+](C)c3c4cc5c(cc4ccc23)OCO5)c1OC [CHELERYTHRINE CHLORIDE] | -0.4 °C
N#CC(C#N)=Cc1ccc(O)c(O)c1 [TYRPHOSTIN 23] | 0.6 °C
COc1ccc(CNc2nc(N(CCO)CCO)nc3c2ncn3C(C)C)cc1 | 0.4 °C

target: T2, Lymphokine-activated killer T-cell-originated protein kinase (Homo sapiens) (UniProt Q96KB5)
T2 sequence (whole entry): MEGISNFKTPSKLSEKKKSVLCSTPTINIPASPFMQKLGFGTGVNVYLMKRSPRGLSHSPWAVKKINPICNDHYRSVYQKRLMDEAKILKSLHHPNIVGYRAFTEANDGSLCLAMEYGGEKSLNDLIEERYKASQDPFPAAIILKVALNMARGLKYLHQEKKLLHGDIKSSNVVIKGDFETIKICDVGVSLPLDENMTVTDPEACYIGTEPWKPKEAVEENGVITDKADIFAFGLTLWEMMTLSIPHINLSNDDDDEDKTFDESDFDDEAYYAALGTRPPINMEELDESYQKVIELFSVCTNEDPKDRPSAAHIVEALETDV

Compound | ΔTm
COc1cccc(-c2cc(=O)c3ccccc3o2)c1N | 1.2 °C
CC(C)n1cnc2/c(=N/c3cccc(Cl)c3)nc(NCCO)[nH]c21 | -0.1 °C
NC(=O)c1ccc2[nH]c(-c3ccc(Oc4ccc(Cl)cc4)cc3)nc2c1 | 0.9 °C
COc1ccc2c(c[n+](C)c3c4cc5c(cc4ccc23)OCO5)c1OC [CHELERYTHRINE CHLORIDE] | -0.4 °C
N#CC(C#N)=Cc1ccc(O)c(O)c1 [TYRPHOSTIN 23] | 0.4 °C
COc1ccc(CNc2nc(N(CCO)CCO)nc3c2ncn3C(C)C)cc1 | 0.7 °C

target: Cyclin-dependent kinase 2 (Homo sapiens, UniProt P24941)

Compound | ΔTm
COc1cccc(-c2cc(=O)c3ccccc3o2)c1N | 0.3 °C
CC(C)n1cnc2/c(=N/c3cccc(Cl)c3)nc(NCCO)[nH]c21 | 1.6 °C
NC(=O)c1ccc2[nH]c(-c3ccc(Oc4ccc(Cl)cc4)cc3)nc2c1 | -0.7 °C
COc1ccc2c(c[n+](C)c3c4cc5c(cc4ccc23)OCO5)c1OC [CHELERYTHRINE CHLORIDE] | 0.2 °C
N#CC(C#N)=Cc1ccc(O)c(O)c1 [TYRPHOSTIN 23] | 1.1 °C
COc1ccc(CNc2nc(N(CCO)CCO)nc3c2ncn3C(C)C)cc1 | 1.6 °C

target: Serine/threonine-protein kinase pim-3 (Homo sapiens) (UniProt Q86V86)

Compound | ΔTm
COc1cccc(-c2cc(=O)c3ccccc3o2)c1N | 0.7 °C
CC(C)n1cnc2/c(=N/c3cccc(Cl)c3)nc(NCCO)[nH]c21 | 2.3 °C
NC(=O)c1ccc2[nH]c(-c3ccc(Oc4ccc(Cl)cc4)cc3)nc2c1 | -0.8 °C
COc1ccc2c(c[n+](C)c3c4cc5c(cc4ccc23)OCO5)c1OC [CHELERYTHRINE CHLORIDE] | -0.9 °C
N#CC(C#N)=Cc1ccc(O)c(O)c1 [TYRPHOSTIN 23] | 1.6 °C
COc1ccc(CNc2nc(N(CCO)CCO)nc3c2ncn3C(C)C)cc1 | 0.2 °C

target: Casein kinase I isoform gamma-2 (Homo sapiens) (UniProt P78368)
Sequence (P78368 whole entry, looked up, canonical isoform): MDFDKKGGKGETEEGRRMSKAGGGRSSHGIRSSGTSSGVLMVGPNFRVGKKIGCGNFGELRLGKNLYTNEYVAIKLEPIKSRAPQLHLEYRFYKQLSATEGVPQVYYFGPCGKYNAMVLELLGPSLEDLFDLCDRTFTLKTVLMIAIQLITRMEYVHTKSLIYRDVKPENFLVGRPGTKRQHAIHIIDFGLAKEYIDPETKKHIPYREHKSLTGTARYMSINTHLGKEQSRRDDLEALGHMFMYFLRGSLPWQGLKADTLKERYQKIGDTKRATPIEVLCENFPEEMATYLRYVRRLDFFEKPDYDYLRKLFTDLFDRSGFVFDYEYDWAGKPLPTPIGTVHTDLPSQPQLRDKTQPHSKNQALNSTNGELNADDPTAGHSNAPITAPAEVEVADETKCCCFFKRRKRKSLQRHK

Compound | ΔTm
COc1cccc(-c2cc(=O)c3ccccc3o2)c1N | 0.5 °C
CC(C)n1cnc2/c(=N/c3cccc(Cl)c3)nc(NCCO)[nH]c21 | 4.5 °C
NC(=O)c1ccc2[nH]c(-c3ccc(Oc4ccc(Cl)cc4)cc3)nc2c1 | 1.6 °C
COc1ccc2c(c[n+](C)c3c4cc5c(cc4ccc23)OCO5)c1OC [CHELERYTHRINE CHLORIDE] | -0.2 °C
N#CC(C#N)=Cc1ccc(O)c(O)c1 [TYRPHOSTIN 23] | 0.4 °C
COc1ccc(CNc2nc(N(CCO)CCO)nc3c2ncn3C(C)C)cc1 | 1.6 °C

target: Serine/threonine-protein kinase RIO2 (Homo sapiens) (UniProt Q9BVS4)
Sequence (Q9BVS4 whole entry, looked up): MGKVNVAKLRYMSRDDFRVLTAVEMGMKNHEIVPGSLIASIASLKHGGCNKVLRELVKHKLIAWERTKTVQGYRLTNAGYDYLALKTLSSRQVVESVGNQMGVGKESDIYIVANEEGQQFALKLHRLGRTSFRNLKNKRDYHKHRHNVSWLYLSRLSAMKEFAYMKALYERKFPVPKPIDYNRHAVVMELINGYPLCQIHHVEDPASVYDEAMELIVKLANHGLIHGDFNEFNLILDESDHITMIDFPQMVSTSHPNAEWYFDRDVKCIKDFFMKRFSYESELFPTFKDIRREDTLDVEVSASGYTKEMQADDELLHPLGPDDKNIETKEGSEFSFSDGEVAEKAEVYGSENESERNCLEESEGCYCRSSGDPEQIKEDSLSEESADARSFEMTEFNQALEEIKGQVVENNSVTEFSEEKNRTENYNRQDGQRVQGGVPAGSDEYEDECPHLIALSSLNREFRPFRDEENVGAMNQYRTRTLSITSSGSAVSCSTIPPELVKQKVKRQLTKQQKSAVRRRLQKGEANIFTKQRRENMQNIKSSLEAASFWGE

Compound | ΔTm
COc1cccc(-c2cc(=O)c3ccccc3o2)c1N | 0.5 °C
CC(C)n1cnc2/c(=N/c3cccc(Cl)c3)nc(NCCO)[nH]c21 | 1 °C
NC(=O)c1ccc2[nH]c(-c3ccc(Oc4ccc(Cl)cc4)cc3)nc2c1 | 2.4 °C
COc1ccc2c(c[n+](C)c3c4cc5c(cc4ccc23)OCO5)c1OC [CHELERYTHRINE CHLORIDE] | -0.4 °C
N#CC(C#N)=Cc1ccc(O)c(O)c1 [TYRPHOSTIN 23] | 1.5 °C
COc1ccc(CNc2nc(N(CCO)CCO)nc3c2ncn3C(C)C)cc1 | 0.3 °C

target: Serine/threonine-protein kinase 16 (Homo sapiens) (UniProt O75716)
Sequence (O75716 whole entry): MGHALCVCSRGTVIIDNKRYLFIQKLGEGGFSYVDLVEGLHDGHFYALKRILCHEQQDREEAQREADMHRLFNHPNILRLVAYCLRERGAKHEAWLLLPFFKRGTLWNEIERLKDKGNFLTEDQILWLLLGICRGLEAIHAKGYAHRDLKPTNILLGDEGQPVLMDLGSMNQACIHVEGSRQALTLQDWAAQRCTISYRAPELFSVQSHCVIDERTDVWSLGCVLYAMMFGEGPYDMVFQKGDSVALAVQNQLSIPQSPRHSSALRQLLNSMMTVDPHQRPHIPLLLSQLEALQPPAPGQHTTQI

Compound | ΔTm
COc1cccc(-c2cc(=O)c3ccccc3o2)c1N | 0.6 °C
CC(C)n1cnc2/c(=N/c3cccc(Cl)c3)nc(NCCO)[nH]c21 | 2.6 °C
NC(=O)c1ccc2[nH]c(-c3ccc(Oc4ccc(Cl)cc4)cc3)nc2c1 | 4.7 °C
COc1ccc2c(c[n+](C)c3c4cc5c(cc4ccc23)OCO5)c1OC [CHELERYTHRINE CHLORIDE] | -0.4 °C
N#CC(C#N)=Cc1ccc(O)c(O)c1 [TYRPHOSTIN 23] | 0.4 °C
COc1ccc(CNc2nc(N(CCO)CCO)nc3c2ncn3C(C)C)cc1 | 2.3 °C

target: T3, Calcium/calmodulin-dependent protein kinase type IV (Homo sapiens) (UniProt Q16566)
T3 sequence (whole entry): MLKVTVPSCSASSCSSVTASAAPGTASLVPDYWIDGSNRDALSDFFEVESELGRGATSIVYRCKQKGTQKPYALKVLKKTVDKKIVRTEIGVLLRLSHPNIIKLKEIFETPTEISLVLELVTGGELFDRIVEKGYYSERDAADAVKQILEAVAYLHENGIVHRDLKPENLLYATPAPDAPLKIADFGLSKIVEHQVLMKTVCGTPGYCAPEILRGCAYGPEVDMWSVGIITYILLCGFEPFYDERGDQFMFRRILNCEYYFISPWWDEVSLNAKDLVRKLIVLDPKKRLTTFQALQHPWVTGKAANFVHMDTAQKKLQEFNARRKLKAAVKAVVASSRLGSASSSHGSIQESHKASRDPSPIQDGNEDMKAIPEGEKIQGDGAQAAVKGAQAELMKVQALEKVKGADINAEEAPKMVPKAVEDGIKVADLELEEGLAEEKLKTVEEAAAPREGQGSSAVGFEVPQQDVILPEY

Compound | ΔTm
COc1cccc(-c2cc(=O)c3ccccc3o2)c1N | -0.1 °C
CC(C)n1cnc2/c(=N/c3cccc(Cl)c3)nc(NCCO)[nH]c21 | 1.2 °C
NC(=O)c1ccc2[nH]c(-c3ccc(Oc4ccc(Cl)cc4)cc3)nc2c1 | -0.4 °C
COc1ccc2c(c[n+](C)c3c4cc5c(cc4ccc23)OCO5)c1OC [CHELERYTHRINE CHLORIDE] | -0.6 °C
N#CC(C#N)=Cc1ccc(O)c(O)c1 [TYRPHOSTIN 23] | 0.4 °C
COc1ccc(CNc2nc(N(CCO)CCO)nc3c2ncn3C(C)C)cc1 | 0.4 °C

target: Serine/threonine-protein kinase VRK2 (Homo sapiens) (UniProt Q86Y07)
Sequence (Q86Y07 whole entry): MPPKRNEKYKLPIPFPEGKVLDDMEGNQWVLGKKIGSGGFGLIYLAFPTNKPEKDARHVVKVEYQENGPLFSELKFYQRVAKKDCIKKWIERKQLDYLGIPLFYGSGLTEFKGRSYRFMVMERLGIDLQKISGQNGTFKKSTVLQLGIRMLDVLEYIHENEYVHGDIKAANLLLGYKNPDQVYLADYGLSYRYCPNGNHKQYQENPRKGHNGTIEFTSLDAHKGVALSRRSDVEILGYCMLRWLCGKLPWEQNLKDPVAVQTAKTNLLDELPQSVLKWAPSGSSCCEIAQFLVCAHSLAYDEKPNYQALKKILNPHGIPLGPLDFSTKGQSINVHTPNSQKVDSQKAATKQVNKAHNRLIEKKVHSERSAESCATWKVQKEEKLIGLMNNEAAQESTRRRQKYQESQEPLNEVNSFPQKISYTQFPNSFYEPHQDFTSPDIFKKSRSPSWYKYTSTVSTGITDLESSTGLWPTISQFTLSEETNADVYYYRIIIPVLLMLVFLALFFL

Compound | ΔTm
COc1cccc(-c2cc(=O)c3ccccc3o2)c1N | 0.2 °C
CC(C)n1cnc2/c(=N/c3cccc(Cl)c3)nc(NCCO)[nH]c21 | 2.5 °C
NC(=O)c1ccc2[nH]c(-c3ccc(Oc4ccc(Cl)cc4)cc3)nc2c1 | 0.5 °C
COc1ccc2c(c[n+](C)c3c4cc5c(cc4ccc23)OCO5)c1OC [CHELERYTHRINE CHLORIDE] | 0 °C
N#CC(C#N)=Cc1ccc(O)c(O)c1 [TYRPHOSTIN 23] | 0.2 °C
COc1ccc(CNc2nc(N(CCO)CCO)nc3c2ncn3C(C)C)cc1 | 1.4 °C
